Data: the supplement of paper PMC8612539
≈ marks a conversion by molar mass, not a printed value.

Columns and labels:
[1] = system: Mannheimia haemolytica; assay: minimum inhibitory concentration (MIC)
Method: (§1)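 Broth microdilution MIC (Sensititre BOPO7F bovine plate, CLSI methods) of 19 antimicrobials against field isolates of P. multocida, M. haemolytica, H. somni (deep nasopharyngeal swabs) and E. coli, Enterococcus spp. (rectal swabs) from weaned dairy heifers. Incubation 16-24 h at 35 C. MIC is the lowest concentration preventing visible growth. Values with <= or > lie at the tested range limits. Trimethoprim-sulfamethoxazole is given as the trimethoprim component of a 1:19 mixture.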

[2] = system: Enterococcus spp.; assay: minimum inhibitory concentration (MIC)
Method: as §1

CS(=O)(=O)c1ccc([C@@H](O)[C@@H](CF)NC(=O)C(Cl)Cl)cc1 [Florfenicol]
minimum inhibitory concentration [µg/mL]
Conditions	[1]	[2]
isolate (source animal id): 2	–	2 (≈ 5.58 µM)
isolate (source animal id): 8	1 (≈ 2.79 µM)	–
isolate (source animal id): 13	1 (≈ 2.79 µM)	–
isolate (source animal id): 18	2 (≈ 5.58 µM)	–
isolate (source animal id): 21	2 (≈ 5.58 µM)	–
isolate (source animal id): 25	2 (≈ 5.58 µM)	–
isolate (source animal id): 27	1 (≈ 2.79 µM)	–
isolate (source animal id): 28	1 (≈ 2.79 µM)	–
isolate (source animal id): 30	1 (≈ 2.79 µM)	–
isolate (source animal id): 31	1 (≈ 2.79 µM)	–
isolate (source animal id): 32	1 (≈ 2.79 µM)	–
isolate (source animal id): 34	1 (≈ 2.79 µM)	–
isolate (source animal id): 35	–	> 8
isolate (source animal id): 36	1 (≈ 2.79 µM)	–
isolate (source animal id): 37	1 (≈ 2.79 µM)	–
isolate (source animal id): 40	1 (≈ 2.79 µM)	–
isolate (source animal id): 41	1 (≈ 2.79 µM)	–
isolate (source animal id): 42	–	2 (≈ 5.58 µM)
isolate (source animal id): 43	2 (≈ 5.58 µM)	–
isolate (source animal id): 44	–	2 (≈ 5.58 µM)
isolate (source animal id): 46	1 (≈ 2.79 µM)	–
isolate (source animal id): 49	1 (≈ 2.79 µM)	–
isolate (source animal id): 50	1 (≈ 2.79 µM)	–
isolate (source animal id): 51	1 (≈ 2.79 µM)	–
isolate (source animal id): 52	1 (≈ 2.79 µM)	–
isolate (source animal id): 53	2 (≈ 5.58 µM)	–
isolate (source animal id): 55	1 (≈ 2.79 µM)	–
isolate (source animal id): 56	1 (≈ 2.79 µM)	–
isolate (source animal id): 57	> 8	–
isolate (source animal id): 79	–	4 (≈ 11.2 µM)
isolate (source animal id): 88	–	2 (≈ 5.58 µM)
isolate (source animal id): 91	–	2 (≈ 5.58 µM)
isolate (source animal id): 92	–	2 (≈ 5.58 µM)
isolate (source animal id): 100	2 (≈ 5.58 µM)	–
isolate (source animal id): 103	1 (≈ 2.79 µM)	–
isolate (source animal id): 107	2 (≈ 5.58 µM)	–
isolate (source animal id): 108	2 (≈ 5.58 µM)	–
isolate (source animal id): 111	–	2 (≈ 5.58 µM)
isolate (source animal id): 112	> 8	–
isolate (source animal id): 113	> 8	–
isolate (source animal id): 121	2 (≈ 5.58 µM)	–
isolate (source animal id): 122	2 (≈ 5.58 µM)	> 8
isolate (source animal id): 123	> 8	2 (≈ 5.58 µM)
isolate (source animal id): 126	> 8	–
isolate (source animal id): 133	> 8	2 (≈ 5.58 µM)
isolate (source animal id): 135	> 8	–
isolate (source animal id): 138	> 8	–
isolate (source animal id): 141	> 8	–
isolate (source animal id): 142	2 (≈ 5.58 µM)	–
isolate (source animal id): 145	> 8	–
isolate (source animal id): 149	0.5 (≈ 1.4 µM)	–
isolate (source animal id): 151	0.5 (≈ 1.4 µM)	–
isolate (source animal id): 152	2 (≈ 5.58 µM)	–
isolate (source animal id): 154	0.5 (≈ 1.4 µM)	–
isolate (source animal id): 158	–	2 (≈ 5.58 µM)
isolate (source animal id): 159	> 8	–
isolate (source animal id): 162	> 8	–
isolate (source animal id): 168	–	2 (≈ 5.58 µM)
isolate (source animal id): 169	–	2 (≈ 5.58 µM)
isolate (source animal id): 170	> 8	–
isolate (source animal id): 171	1 (≈ 2.79 µM)	4 (≈ 11.2 µM)
isolate (source animal id): 172	> 8	–
isolate (source animal id): 173	1 (≈ 2.79 µM)	–
isolate (source animal id): 175	–	4 (≈ 11.2 µM)
isolate (source animal id): 177	–	4 (≈ 11.2 µM)
isolate (source animal id): 179	> 8	–
isolate (source animal id): 180	> 8	–
isolate (source animal id): 181	–	2 (≈ 5.58 µM)
isolate (source animal id): 182	–	2 (≈ 5.58 µM)
isolate (source animal id): 183	> 8	2 (≈ 5.58 µM)
isolate (source animal id): 186	> 8	–
isolate (source animal id): 187	> 8	2 (≈ 5.58 µM)
isolate (source animal id): 188	> 8	–
isolate (source animal id): 190	1 (≈ 2.79 µM)	2 (≈ 5.58 µM)
isolate (source animal id): 191	> 8	–
isolate (source animal id): 192	1 (≈ 2.79 µM)	–
isolate (source animal id): 194	–	2 (≈ 5.58 µM)
isolate (source animal id): 195	–	2 (≈ 5.58 µM)
isolate (source animal id): 197	–	2 (≈ 5.58 µM)
isolate (source animal id): 201	> 8	–
isolate (source animal id): 202	1 (≈ 2.79 µM)	–
isolate (source animal id): 209	1 (≈ 2.79 µM)	–
isolate (source animal id): 211	> 8	2 (≈ 5.58 µM)
isolate (source animal id): 214	–	2 (≈ 5.58 µM)
isolate (source animal id): 220	> 8	–
isolate (source animal id): 221	> 8	–
isolate (source animal id): 222	–	2 (≈ 5.58 µM)
isolate (source animal id): 223	> 8	2 (≈ 5.58 µM)
isolate (source animal id): 228	–	2 (≈ 5.58 µM)
isolate (source animal id): 230	–	2 (≈ 5.58 µM)
isolate (source animal id): 233	2 (≈ 5.58 µM)	–
isolate (source animal id): 235	–	2 (≈ 5.58 µM)
isolate (source animal id): 236	–	2 (≈ 5.58 µM)
isolate (source animal id): 237	1 (≈ 2.79 µM)	–
isolate (source animal id): 239	–	2 (≈ 5.58 µM)
isolate (source animal id): 241	2 (≈ 5.58 µM)	2 (≈ 5.58 µM)
isolate (source animal id): 244	–	2 (≈ 5.58 µM)
isolate (source animal id): 246	–	2 (≈ 5.58 µM)
isolate (source animal id): 247	–	4 (≈ 11.2 µM)
isolate (source animal id): 250	–	2 (≈ 5.58 µM)
isolate (source animal id): 252	2 (≈ 5.58 µM)	4 (≈ 11.2 µM)
isolate (source animal id): 253	2 (≈ 5.58 µM)	–
isolate (source animal id): 259	> 8	–
isolate (source animal id): 260	2 (≈ 5.58 µM)	–
isolate (source animal id): 262	2 (≈ 5.58 µM)	–
isolate (source animal id): 268	–	2 (≈ 5.58 µM)
isolate (source animal id): 282	> 8	1 (≈ 2.79 µM)
isolate (source animal id): 285	–	4 (≈ 11.2 µM)
isolate (source animal id): 287	2 (≈ 5.58 µM)	–
isolate (source animal id): 288	0.5 (≈ 1.4 µM)	–
isolate (source animal id): 289	–	2 (≈ 5.58 µM)
isolate (source animal id): 290	–	2 (≈ 5.58 µM)
isolate (source animal id): 291	0.5 (≈ 1.4 µM)	–
isolate (source animal id): 293	2 (≈ 5.58 µM)	–
isolate (source animal id): 296	–	2 (≈ 5.58 µM)
isolate (source animal id): 298	8 (≈ 22.3 µM)	2 (≈ 5.58 µM)
isolate (source animal id): 299	> 8	–
isolate (source animal id): 300	1 (≈ 2.79 µM)	–
isolate (source animal id): 301	–	2 (≈ 5.58 µM)
isolate (source animal id): 302	> 8	–
isolate (source animal id): 304	8 (≈ 22.3 µM)	–
isolate (source animal id): 306	0.5 (≈ 1.4 µM)	–
isolate (source animal id): 308	0.5 (≈ 1.4 µM)	–
isolate (source animal id): 309	0.5 (≈ 1.4 µM)	–
isolate (source animal id): 310	–	4 (≈ 11.2 µM)
isolate (source animal id): 313	2 (≈ 5.58 µM)	–
isolate (source animal id): 318	1 (≈ 2.79 µM)	–
isolate (source animal id): 320	1 (≈ 2.79 µM)	1 (≈ 2.79 µM)
isolate (source animal id): 321	2 (≈ 5.58 µM)	–
isolate (source animal id): 323	> 8	–
isolate (source animal id): 324	2 (≈ 5.58 µM)	–
isolate (source animal id): 326	2 (≈ 5.58 µM)	–
isolate (source animal id): 328	2 (≈ 5.58 µM)	–
isolate (source animal id): 329	2 (≈ 5.58 µM)	–
isolate (source animal id): 331	–	2 (≈ 5.58 µM)
isolate (source animal id): 333	2 (≈ 5.58 µM)	2 (≈ 5.58 µM)
isolate (source animal id): 335	2 (≈ 5.58 µM)	–
isolate (source animal id): 338	2 (≈ 5.58 µM)	–
isolate (source animal id): 341	–	> 8
